For this experiment, the target named is Recombinant human KIF18A (1-467His-tagged) protein (Homo sapiens (Human), UniProt Q8NI77). Briefly: KIF18A enzyme assay (microtubule-stimulated ATPase activity, ADP-Glo). In kind it is biochemical. To be noted: 30 nM KIF18A, ATP 75 μM, read-out: inhibitory activity against KIF18A IC50. Put shortly: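 Baculovirus-expressed human KIF18A (1-467, His-tagged; 30 nM) preincubated 15 min at room temperature with compound (22-point 2-fold series) in pH 7.5 Tris buffer containing 30 μg/mL pig microtubules and 1 μM paclitaxel.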
Sequence of Recombinant human KIF18A (1-467His-tagged) protein (Q8NI77 1-467): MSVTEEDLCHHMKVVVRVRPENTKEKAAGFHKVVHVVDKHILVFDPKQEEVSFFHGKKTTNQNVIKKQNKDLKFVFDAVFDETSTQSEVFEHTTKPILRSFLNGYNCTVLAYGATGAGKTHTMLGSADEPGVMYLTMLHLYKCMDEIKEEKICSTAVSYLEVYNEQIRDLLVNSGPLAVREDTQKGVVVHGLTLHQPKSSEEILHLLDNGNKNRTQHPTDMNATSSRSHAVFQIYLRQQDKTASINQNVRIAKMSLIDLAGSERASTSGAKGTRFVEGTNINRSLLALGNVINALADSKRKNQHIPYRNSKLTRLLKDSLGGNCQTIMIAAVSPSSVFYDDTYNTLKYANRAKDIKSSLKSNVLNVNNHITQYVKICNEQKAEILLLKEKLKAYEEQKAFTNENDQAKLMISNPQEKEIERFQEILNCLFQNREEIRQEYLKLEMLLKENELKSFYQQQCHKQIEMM
Sequence of Recombinant human KIF18A (1-467His-tagged) protein (P02550 whole entry partner): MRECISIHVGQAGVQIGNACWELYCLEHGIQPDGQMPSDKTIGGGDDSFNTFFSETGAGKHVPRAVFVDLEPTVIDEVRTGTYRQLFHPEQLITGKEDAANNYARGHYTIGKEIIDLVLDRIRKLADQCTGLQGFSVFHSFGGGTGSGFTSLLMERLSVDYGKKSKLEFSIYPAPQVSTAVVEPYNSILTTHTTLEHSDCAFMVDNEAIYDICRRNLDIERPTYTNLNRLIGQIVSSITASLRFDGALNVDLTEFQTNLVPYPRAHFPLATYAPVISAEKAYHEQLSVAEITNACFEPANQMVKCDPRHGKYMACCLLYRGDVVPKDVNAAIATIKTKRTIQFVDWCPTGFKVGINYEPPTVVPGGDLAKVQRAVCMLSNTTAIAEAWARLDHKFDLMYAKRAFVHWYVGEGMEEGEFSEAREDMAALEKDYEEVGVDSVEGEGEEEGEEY
Sequence of Recombinant human KIF18A (1-467His-tagged) protein (P02554 whole entry partner): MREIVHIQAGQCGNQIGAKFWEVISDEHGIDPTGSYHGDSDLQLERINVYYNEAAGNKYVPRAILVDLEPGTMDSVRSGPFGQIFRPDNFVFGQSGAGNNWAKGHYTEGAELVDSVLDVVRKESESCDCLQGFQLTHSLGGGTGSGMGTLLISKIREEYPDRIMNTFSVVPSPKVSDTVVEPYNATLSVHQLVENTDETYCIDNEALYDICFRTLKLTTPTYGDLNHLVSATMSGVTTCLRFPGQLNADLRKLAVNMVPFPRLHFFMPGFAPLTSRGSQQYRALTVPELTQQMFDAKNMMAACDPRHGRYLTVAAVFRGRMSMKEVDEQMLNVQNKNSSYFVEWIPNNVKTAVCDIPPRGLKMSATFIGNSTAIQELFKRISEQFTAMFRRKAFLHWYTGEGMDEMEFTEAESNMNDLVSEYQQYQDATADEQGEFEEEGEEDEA
On the technique in general: ADP-Glo first removes unused ATP, then detects ADP through luciferase.

Here are results for 57 compounds from patent US20250197382A1, “KIF18A INHIBITOR” (WIGEN BIOMEDICINE TECHNOLOGY (SHANGHAI) CO., LTD., priority 2022, published 2025).

For the compound `CN1CCc2cc(NC(=O)c3ccc(NS(=O)(=O)CCO)cc3N3CCC4(CC3)CC4)nc(N3CCC4(CC4)C3)c21` [Compound 326], the IC50 – broadly, the concentration at which inhibition is half-maximal – is at most 0.1 µM.
For the compound `CN1CCc2cc(NC(=O)c3ccc(NS(=O)(=O)CCO)cc3N3CCC4(CC3)CC4)nc(OC3CCC3)c21` [Compound 327], the IC50 is at most 0.1 µM.
Under `CN1CCc2cc(NC(=O)c3ccc(NS(=O)(=O)CCO)cc3N3CCC4(CC3)CC4)nc(N3CCC(C)(F)C3)c21` (stereo not drawn) [Compound 328] stands at most 0.1 µM.
`CN1CCc2cc(NC(=O)c3ccc(NS(=O)(=O)CCO)cc3N3CCC4(CC3)CC4)nc(N3CCC(F)CC3)c21` [Compound 329]: the IC50 was at most 0.1 µM.
Next, `CN1CCc2cc(NC(=O)c3ccc(NS(=O)(=O)CCO)cc3N3CCC4(CC3)CC4)nc(N3CC4CC4C3)c21` (stereo not drawn) [Compound 330]: at most 0.1 µM; `CN1CCc2cc(NC(=O)c3ccc(NS(=O)(=O)CCO)cc3N3CCC4(CC3)CC4)nc(NC(C)(C)CO)c21` [Compound 331]: at most 0.1 µM.
Take `CN1CCc2cc(NC(=O)c3ccc(S(=O)(=O)NCCO)cc3N3CCC4(CC3)CC4)nc(N3CCOCC3)c21` [Compound 332]: the IC50 was at most 0.1 µM.
In the case of `C[C@@H](CO)S(=O)(=O)Nc1ccc(C(=O)Nc2cc3c(c(N4CCC(F)(F)CC4)n2)N(C)CC3)c(C2CCC3(CC2)CC3)c1` [Compound 333], the IC50 was at most 0.1 µM.
For the compound `C[C@H](CO)S(=O)(=O)Nc1ccc(C(=O)Nc2cc3c(c(N4CCC(F)(F)CC4)n2)N(C)CC3)c(N2CCC3(CC2)CC3)c1` [Compound 334], the IC50 was at most 0.1 µM.
Under `C[C@@H]1CN(c2nc(NC(=O)c3ccc(NS(=O)(=O)[C@@H](C)CO)cc3N3CCC4(CC3)CC4)cc3c2N(C)CC3)CCO1` [Compound 335] stands at most 0.1 µM; under `C[C@@H]1CN(c2nc(NC(=O)c3ccc(NS(=O)(=O)[C@H](C)CO)cc3N3CCC4(CC3)CC4)cc3c2N(C)CC3)CCO1` [Compound 336], at most 0.1 µM.
Next, `CN1CCc2cc(NC(=O)c3ccc(S(=O)(=O)NCCO)cc3N3CCC4(CC3)CC4)nc(N3CCC(F)(F)CC3)c21` [Compound 337]: at most 0.1 µM; `C[C@@H]1CN(c2nc(NC(=O)c3ccc(S(=O)(=O)NCCO)cc3N3CCC4(CC3)CC4)cc3c2N(C)CC3)CCO1` [Compound 338]: at most 0.1 µM; `C[C@H]1CN(c2nc(NC(=O)c3ccc(S(=O)(=O)NCCO)cc3N3CCC4(CC3)CC4)cc3c2N(C)CC3)CCO1` [Compound 339]: at most 0.1 µM.
With `CN1CCc2cc(NC(=O)c3ccc(S(=O)(=O)NCCO)cc3N3CCC4(CC3)CC4)nc(N3CC(F)(F)C3)c21` [Compound 340], the IC50 is at most 0.1 µM.
Next, `CN1CCc2cc(NC(=O)c3ccc(S(=O)(=O)NCCO)cc3N3CCC4(CC3)CC4)nc(N3CCC4(CC4)C3)c21` [Compound 342]: at most 0.1 µM.
Next, `CN1CCc2cc(NC(=O)c3ccc(S(=O)(=O)NCCO)cc3N3CCC4(CC3)CC4)nc(OC3CCC3)c21` [Compound 343]: at most 0.1 µM.
Turning to `CN1CCc2cc(NC(=O)c3ccc(S(=O)(=O)NCCO)cc3N3CCC4(CC3)CC4)nc(N3CCC(C)(F)C3)c21` (stereo not drawn) [Compound 344], the IC50 was at most 0.1 µM.
Next, `CN1CCc2cc(NC(=O)c3ccc(S(=O)(=O)NCCO)cc3N3CCC4(CC3)CC4)nc(N3CC4CC4C3)c21` (stereo not drawn) [Compound 346]: at most 0.1 µM; `CN1CCc2cc(NC(=O)c3ccc(S(=O)(=O)NCCO)cc3N3CCC4(CC3)CC4)nc(NC(C)(C)CO)c21` [Compound 347]: at most 0.1 µM.
As to `C[C@@H](CO)NS(=O)(=O)c1ccc(C(=O)Nc2cc3c(c(N4CCC(F)(F)CC4)n2)N(C)CC3)c(N2CCC3(CC2)CC3)c1` [Compound 349], the IC50 was at most 0.1 µM.
As to `C[C@H](CO)NS(=O)(=O)c1ccc(C(=O)Nc2cc3c(c(N4CCC(F)(F)CC4)n2)N(C)CC3)c(N2CCC3(CC2)CC3)c1` [Compound 350], the IC50 was at most 0.1 µM.
Next, `C[C@@H]1CN(c2nc(NC(=O)c3ccc(S(=O)(=O)N[C@@H](C)CO)cc3N3CCC4(CC3)CC4)cc3c2N(C)CC3)CCO1` [Compound 351]: at most 0.1 µM; `C[C@H](CO)NS(=O)(=O)c1ccc(C(=O)Nc2cc3c(c(N4CCO[C@H](C)C4)n2)N(C)CC3)c(N2CCC3(CC2)CC3)c1` [Compound 352]: at most 0.1 µM; `C[C@@H]1CN(c2nc(C(=O)Nc3ccc(NS(=O)(=O)CCO)cc3N3CCC4(CC3)CC4)cc3c2N(C)CC3)CCO1` [Compound 354]: at most 0.1 µM.
In the case of `C[C@H]1CN(c2nc(C(=O)Nc3ccc(NS(=O)(=O)CCO)cc3N3CCC4(CC3)CC4)cc3c2N(C)CC3)CCO1` [Compound 355], the IC50 was at most 0.1 µM.
Consider `CN1CCc2cc(C(=O)Nc3ccc(NS(=O)(=O)CCO)cc3N3CCC4(CC3)CC4)nc(N3CC(F)(F)C3)c21` [Compound 356], for which the IC50 was at most 0.1 µM.
Next, `CN1CCc2cc(C(=O)Nc3ccc(NS(=O)(=O)CCO)cc3N3CCC4(CC3)CC4)nc(OCCC(F)(F)F)c21` [Compound 357]: at most 0.1 µM; `CN1CCc2cc(C(=O)Nc3ccc(NS(=O)(=O)CCO)cc3C3CCC4(CC3)CC4)nc(N3CCC4(CC4)C3)c21` [Compound 358]: at most 0.1 µM; `CN1CCc2cc(C(=O)Nc3ccc(NS(=O)(=O)CCO)cc3N3CCC4(CC3)CC4)nc(OC3CCC3)c21` [Compound 359]: at most 0.1 µM.
Under `CN1CCc2cc(C(=O)Nc3ccc(NS(=O)(=O)CCO)cc3N3CCC4(CC3)CC4)nc(N3CCC(C)(F)C3)c21` (stereo not drawn) [Compound 360] stands at most 0.1 µM; under `CN1CCc2cc(C(=O)Nc3ccc(NS(=O)(=O)CCO)cc3N3CCC4(CC3)CC4)nc(N3CCC(F)CC3)c21` [Compound 361], at most 0.1 µM.
On to `CN1CCc2cc(C(=O)Nc3ccc(NS(=O)(=O)CCO)cc3N3CCC4(CC3)CC4)nc(N3CC4CC4C3)c21` (stereo not drawn) [Compound 362], for which the IC50 is at most 0.1 µM.
Under `CN1CCc2cc(C(=O)Nc3ccc(NS(=O)(=O)CCO)cc3N3CCC4(CC3)CC4)nc(NC(C)(C)CO)c21` [Compound 363] stands at most 0.1 µM; under `CN1CCc2cc(C(=O)Nc3ccc(NS(=O)(=O)CCO)cc3N3CCC4(CC3)CC4)nc(N3CCOCC3)c21` [Compound 364], at most 0.1 µM; under `C[C@@H](CO)S(=O)(=O)Nc1ccc(NC(=O)c2cc3c(c(N4CCC(F)(F)CC4)n2)N(C)CC3)c(N2CCC3(CC2)CC3)c1` [Compound 365], at most 0.1 µM.
As for `C[C@H](CO)S(=O)(=O)Nc1ccc(NC(=O)c2cc3c(c(N4CCC(F)(F)CC4)n2)N(C)CC3)c(N2CCC3(CC2)CC3)c1` [Compound 366], the IC50 was at most 0.1 µM.
`C[C@@H]1CN(c2nc(C(=O)Nc3ccc(NS(=O)(=O)[C@@H](C)CO)cc3N3CCC4(CC3)CC4)cc3c2N(C)CC3)CCO1` [Compound 367]: the IC50 was at most 0.1 µM.
Next, `C[C@@H]1CN(c2nc(C(=O)Nc3ccc(NS(=O)(=O)[C@H](C)CO)cc3N3CCC4(CC3)CC4)cc3c2N(C)CC3)CCO1` [Compound 368]: at most 0.1 µM; `CN1CCc2cc(C(=O)Nc3ccc(S(=O)(=O)NCCO)cc3N3CCC4(CC3)CC4)nc(N3CCC(F)(F)CC3)c21` [Compound 369]: at most 0.1 µM.
Under `C[C@@H]1CN(c2nc(C(=O)Nc3ccc(S(=O)(=O)NCCO)cc3N3CCC4(CC3)CC4)cc3c2N(C)CC3)CCO1` [Compound 370] stands at most 0.1 µM.
With `C[C@H]1CN(c2nc(C(=O)Nc3ccc(S(=O)(=O)NCCO)cc3N3CCC4(CC3)CC4)cc3c2N(C)CC3)CCO1` [Compound 371], the half-maximal inhibitory concentration (IC50) was at most 0.1 µM.
Regarding `CN1CCc2cc(C(=O)Nc3ccc(S(=O)(=O)NCCO)cc3N3CCC4(CC3)CC4)nc(N3CC(F)(F)C3)c21` [Compound 372], the half-inhibitory concentration (IC50) was at most 0.1 µM.
Under `CN1CCc2cc(C(=O)Nc3ccc(S(=O)(=O)NCCO)cc3N3CCC4(CC3)CC4)nc(OCCC(F)(F)F)c21` [Compound 373] stands at most 0.1 µM; under `CN1CCc2cc(C(=O)Nc3ccc(S(=O)(=O)NCCO)cc3N3CCC4(CC3)CC4)nc(N3CCC4(CC4)C3)c21` [Compound 374], at most 0.1 µM; under `CN1CCc2cc(C(=O)Nc3ccc(S(=O)(=O)NCCO)cc3N3CCC4(CC3)CC4)nc(OC3CCC3)c21` [Compound 375], at most 0.1 µM.
Under `CN1CCc2cc(C(=O)Nc3ccc(S(=O)(=O)NCCO)cc3N3CCC4(CC3)CC4)nc(N3CCC(C)(F)C3)c21` (stereo not drawn) [Compound 376] stands at most 0.1 µM.
Consider `CN1CCc2cc(C(=O)Nc3ccc(S(=O)(=O)NCCO)cc3N3CCC4(CC3)CC4)nc(N3CCC(F)CC3)c21` [Compound 377], for which the IC50 is at most 0.1 µM.
Under `CN1CCc2cc(C(=O)Nc3ccc(S(=O)(=O)NCCO)cc3N3CCC4(CC3)CC4)nc(N3CC4CC4C3)c21` (stereo not drawn) [Compound 378] stands at most 0.1 µM; under `CN1CCc2cc(C(=O)Nc3ccc(S(=O)(=O)NCCO)cc3N3CCC4(CC3)CC4)nc(NC(C)(C)CO)c21` [Compound 379], at most 0.1 µM; under `CN1CCc2cc(C(=O)Nc3ccc(S(=O)(=O)NCCO)cc3N3CCC4(CC3)CC4)nc(N3CCOCC3)c21` [Compound 380], at most 0.1 µM.
Under `C[C@@H](CO)NS(=O)(=O)c1ccc(NC(=O)c2cc3c(c(N4CCC(F)(F)CC4)n2)N(C)CC3)c(N2CCC3(CC2)CC3)c1` [Compound 381] stands at most 0.1 µM.
Under `C[C@H](CO)NS(=O)(=O)c1ccc(NC(=O)c2cc3c(c(N4CCC(F)(F)CC4)n2)N(C)CC3)c(N2CCC3(CC2)CC3)c1` [Compound 382] stands at most 0.1 µM; under `C[C@@H]1CN(c2nc(C(=O)Nc3ccc(S(=O)(=O)N[C@@H](C)CO)cc3N3CCC4(CC3)CC4)cc3c2N(C)CC3)CCO1` [Compound 383], at most 0.1 µM; under `C[C@H](CO)NS(=O)(=O)c1ccc(NC(=O)c2cc3c(c(N4CCO[C@H](C)C4)n2)N(C)CC3)c(N2CCC3(CC2)CC3)c1` [Compound 384], at most 0.1 µM.
`C[C@@H]1CN(c2cc(NC(=O)c3ccc(NS(=O)(=O)CCO)cc3N3CCC4(CC3)CC4)cc3ccn(C)c23)CCO1` [Compound 386]: the half-inhibitory concentration (IC50) is at most 0.1 µM.
Next, `C[C@H]1CN(c2cc(NC(=O)c3ccc(NS(=O)(=O)CCO)cc3N3CCC4(CC3)CC4)cc3ccn(C)c23)CCO1` [Compound 387]: at most 0.1 µM.
